Results on 8 compounds are retold here after article PMC6504561 (Science signaling, 2017).

In test [1] the test system is ARHGEF2 Ser^151 phosphorylation. In words: Western blot of ARHGEF2 Ser^151 phosphorylation in treated HEK293T cells. The class given is cell-based. The settings on record: 1mM for 6 hours, normalized with total ARHGEF2, three independent experiments. Background: In western blotting, separated proteins are transferred to a membrane and probed.
The test system of test [2] is ARHGEF2. The settings on record: cited from earlier work; for effect on ARHGEF2 release from microtubules and RHOA activation: disruption of polymerized microtubules; for effect on ARHGEF2 activation: GPCR ligands.
Test [3] has as its target T1, 14-3-3 (Mus musculus, UniProt P63101).
T1 sequence (P63101 1-245): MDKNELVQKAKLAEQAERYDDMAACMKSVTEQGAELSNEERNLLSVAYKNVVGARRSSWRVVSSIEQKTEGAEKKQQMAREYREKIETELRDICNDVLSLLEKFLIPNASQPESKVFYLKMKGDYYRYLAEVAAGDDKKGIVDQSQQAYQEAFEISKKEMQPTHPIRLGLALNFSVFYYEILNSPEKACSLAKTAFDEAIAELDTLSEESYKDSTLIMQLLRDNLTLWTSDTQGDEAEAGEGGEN
Briefly: Microscale thermophoresis. The class given is binding, murine. The settings on record: MST; peptides at 100 nM; GST-14-3-3 serial dilutions 195 μM to 2 nM; 20 mM HEPES pH 7.4, 150 mM NaCl, 1 mM DTT, 0.05 % Tween20; three independent experiments. In general terms: In MST a laser heats a spot of the sample, and binding alters the fluorescence response.

On to `NC(=O)c1ncn([C@@H]2O[C@H](COP(=O)(O)O)[C@@H](O)[C@H]2O)c1N` [5-Aminoimidazole-4-carboxamide ribonucleotide], for which the “ARHGEF2 Ser^151 phosphorylation” value in test [1] is on record as “no apparent change in phosphorylation of this residue was observed”. Consider `COc1cc2c(c(OC)c1OC)-c1ccc(OC)c(=O)cc1[C@@H](NC(C)=O)CC2` [Colchicine], for which, in test [2], the “effect on ARHGEF2 release from microtubules and RHOA activation” value (“effect on ARHGEF2 release” below) is “release ARHGEF2 and lead to potent activation of RHOA”. As for `COC(=O)Nc1nc2ccc(C(=O)c3cccs3)cc2[nH]1` [Nocodazol], in test [2], the “effect on ARHGEF2 release” value is “release ARHGEF2 and lead to potent activation of RHOA”.

`CC(=O)O[C@H]1C(=O)[C@@]2(C)[C@H]([C@H](OC(=O)c3ccccc3)[C@]3(O)C[C@H](OC(=O)[C@H](O)[C@@H](NC(=O)c4ccccc4)c4ccccc4)C(C)=C1C3(C)C)[C@]1(OC(C)=O)CO[C@@H]1C[C@@H]2O` [Paclitaxel]: in test [2], the “effect on ARHGEF2 release” value was “an effect that can be reversed by the microtubule stabilizing drug Paclitaxel”.

As for RRPLDPRRR[(p)Ser885]LPAGDA[Lys(FITC)], the “binding to 14-3-3 (in words)” value in test [3] is “no binding was detected”. Still for that read-out and setting: in the case of SSLSLAKSV[(p)Ser^151]TTNIAG[Lys(FITC)] it was “no binding was detected”. For lysophosphatidic acid, in test [2], the “effect on ARHGEF2 activation” value was “trigger activation of ARHGEF2”.

For the compound thrombin, the “effect on ARHGEF2 activation” value in test [2] was “trigger activation of ARHGEF2”.
